Several values for one entry are separate records, joined by “and”; a condition that tells them apart may be missing. Equal entries are not always repeated.
Experiment: an = ratio of the nth substance listed
Details: 100 kPa, Liquid, Buoyancy - hydrostatic balance, a2 = 1.7

[F][Al]([F])[F] [aluminum fluoride] + [F-].[K+]
Details | mass density
1188.2 K | 1843 kg/m3
1188.4 K | 1842 kg/m3
1188.6 K | 1842 kg/m3
1189.2 K | 1841 kg/m3
1189.7 K | 1841 kg/m3
1189.8 K | 1841 kg/m3
1190.6 K | 1840 kg/m3
1190.7 K | 1840 kg/m3
1190.9 K | 1840 kg/m3
1191.6 K | 1839 kg/m3 and 1840 kg/m3
1191.7 K | 1839 kg/m3
1191.8 K | 1840 kg/m3
1192.2 K | 1839 kg/m3
1192.4 K | 1838 kg/m3
1192.7 K | 1838 kg/m3
1192.8 K | 1838 kg/m3
1193 K | 1839 kg/m3
1193.8 K | 1837 kg/m3
1194 K | 1838 kg/m3
1194.2 K | 1837 kg/m3
1194.6 K | 1837 kg/m3
1194.9 K | 1837 kg/m3
1195.3 K | 1836 kg/m3
1195.6 K | 1835 kg/m3 and 1837 kg/m3
1195.9 K | 1835 kg/m3
1196.1 K | 1836 kg/m3
1196.3 K | 1835 kg/m3
1196.5 K | 1835 kg/m3
1197.1 K | 1835 kg/m3
1197.5 K | 1834 kg/m3
1197.7 K | 1834 kg/m3
1197.8 K | 1834 kg/m3 and 1835 kg/m3
1198.1 K | 1834 kg/m3
1198.4 K | 1833 kg/m3
1198.9 K | 1833 kg/m3
1199.6 K | 1832 kg/m3
1199.9 K | 1833 kg/m3
1200.2 K | 1832 kg/m3
1200.5 K | 1831 kg/m3
1200.7 K | 1832 kg/m3
1200.8 K | 1831 kg/m3 and 1832 kg/m3
1201.4 K | 1830 kg/m3
1201.7 K | 1830 kg/m3 and 1831 kg/m3
1202.1 K | 1831 kg/m3
1202.2 K | 1832 kg/m3
1202.4 K | 1830 kg/m3 and 1831 kg/m3
1202.9 K | 1829 kg/m3 and 1831 kg/m3
1203 K | 1829 kg/m3
1203.6 K | 1829 kg/m3
1203.8 K | 1828 kg/m3
1203.9 K | 1828 kg/m3
1204 K | 1828 kg/m3 and 1829 kg/m3
1204.3 K | 1828 kg/m3
1204.6 K | 1827 kg/m3
1204.7 K | 1827 kg/m3
1205 K | 1826 kg/m3
1205.6 K | 1826 kg/m3
1205.8 K | 1826 kg/m3
1206 K | 1827 kg/m3
1206.3 K | 1826 kg/m3
1206.6 K | 1826 kg/m3
1206.7 K | 1825 kg/m3
1207 K | 1826 kg/m3
1207.1 K | 1825 kg/m3
1207.3 K | 1824 kg/m3
1207.5 K | 1825 kg/m3
1207.6 K | 1824 kg/m3
1207.8 K | 1824 kg/m3
1207.9 K | 1825 kg/m3
1208.2 K | 1824 kg/m3
1208.4 K | 1823 kg/m3
1208.5 K | 1823 kg/m3
1208.7 K | 1822 kg/m3
1209.3 K | 1823 kg/m3
1209.7 K | 1823 kg/m3
1209.8 K | 1823 kg/m3
1210.1 K | 1821 kg/m3
1210.2 K | 1822 kg/m3
1210.5 K | 1821 kg/m3
1211 K | 1822 kg/m3
1211.2 K | 1822 kg/m3
1211.3 K | 1822 kg/m3
1211.4 K | 1821 kg/m3
1211.7 K | 1821 kg/m3 and 1820 kg/m3
1211.8 K | 1822 kg/m3
1211.9 K | 1821 kg/m3 and 1819 kg/m3
1212.3 K | 1820 kg/m3 and 1819 kg/m3
1212.6 K | 1819 kg/m3
1212.9 K | 1820 kg/m3
1213.1 K | 1820 kg/m3
1213.3 K | 1820 kg/m3
1213.5 K | 1819 kg/m3
1213.7 K | 1820 kg/m3
1213.8 K | 1819 kg/m3
1214 K | 1819 kg/m3 and 1818 kg/m3
1214.2 K | 1817 kg/m3
1214.6 K | 1819 kg/m3
1214.7 K | 1819 kg/m3
1215.1 K | 1819 kg/m3
1215.2 K | 1819 kg/m3 and 1816 kg/m3
1215.5 K | 1818 kg/m3
1215.6 K | 1816 kg/m3
1216 K | 1815 kg/m3
1216.7 K | 1814 kg/m3
1217 K | 1814 kg/m3
1217.5 K | 1813 kg/m3
1218.2 K | 1813 kg/m3
1218.7 K | 1812 kg/m3
1219.2 K | 1811 kg/m3 and 1812 kg/m3
1220.3 K | 1810 kg/m3
1220.6 K | 1809 kg/m3
1220.9 K | 1810 kg/m3
1221.8 K | 1809 kg/m3
1222.2 K | 1808 kg/m3
1222.3 K | 1808 kg/m3
1222.7 K | 1807 kg/m3
1223.3 K | 1807 kg/m3
1223.7 K | 1805 kg/m3
1223.8 K | 1806 kg/m3
